Data set [1] in a line: in vitro. Details: species or system HB2, HEK293. As to conditions: human, ccd841 cells.
The target in the next data set is T1, NUDT7 (Homo sapiens, UniProt P0C024).
T1 construct: residues 14-235, E. coli, pNIC28-Bsa4, N-terminal His6 tag removed by TEV, construct 26672 Da
On the set-up: Intact protein LC/MS covalent labelling, fragments in pools of five, 200 uM each, 4 °C. To be noted: 24 h, 4 °C, pool of five; 200 µM; covalent.

A further data set deals with T2, NNMT (hNNMT) (Homo sapiens, UniProt P40261).
T2 construct: wild type, N-terminal His6 tag kept (no cleavage described), E. coli, construct 31248 Da
T2 sequence (P40261 1-264): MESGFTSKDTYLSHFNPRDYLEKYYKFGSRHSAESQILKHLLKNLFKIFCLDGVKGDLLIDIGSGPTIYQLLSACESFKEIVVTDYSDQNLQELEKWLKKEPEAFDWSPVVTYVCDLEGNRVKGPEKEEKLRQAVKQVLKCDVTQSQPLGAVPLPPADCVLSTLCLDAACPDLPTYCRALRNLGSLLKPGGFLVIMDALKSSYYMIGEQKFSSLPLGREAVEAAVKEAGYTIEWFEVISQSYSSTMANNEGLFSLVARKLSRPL
Details: Intact protein LC/MS covalent labelling, fragments in pools of five, 200 uM each, 4 °C. As to conditions: 24 h, 4 °C, pool of five; 200 µM; covalent.

The target of a further data set is T3, BSA (Bos taurus, UniProt P02769).
T3 construct: gene ALB
T3 sequence (P02769 whole entry): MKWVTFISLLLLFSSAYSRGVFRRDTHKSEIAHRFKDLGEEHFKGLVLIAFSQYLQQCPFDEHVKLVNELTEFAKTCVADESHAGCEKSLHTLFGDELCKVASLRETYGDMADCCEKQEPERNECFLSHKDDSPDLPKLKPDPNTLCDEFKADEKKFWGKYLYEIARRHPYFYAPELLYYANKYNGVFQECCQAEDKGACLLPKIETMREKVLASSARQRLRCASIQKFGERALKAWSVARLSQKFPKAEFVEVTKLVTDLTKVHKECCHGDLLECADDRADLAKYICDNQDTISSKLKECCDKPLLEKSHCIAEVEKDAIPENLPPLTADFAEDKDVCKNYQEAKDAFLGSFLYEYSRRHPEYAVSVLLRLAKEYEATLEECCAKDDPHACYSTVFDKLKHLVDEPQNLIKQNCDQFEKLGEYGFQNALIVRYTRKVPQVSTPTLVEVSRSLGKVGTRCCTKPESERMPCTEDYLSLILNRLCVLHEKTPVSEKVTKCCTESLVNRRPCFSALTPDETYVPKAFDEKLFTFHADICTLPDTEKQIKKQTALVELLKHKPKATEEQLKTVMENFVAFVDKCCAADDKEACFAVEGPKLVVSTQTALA
On the set-up: Intact protein LC/MS covalent labelling, fragments in pools of five, 200 uM each, 4 °C. To be noted: 24 h, 4 °C, pool of five; 200 µM; covalent.

The target in a further data set is T4, PCAF (Homo sapiens, UniProt Q92831).
T4 construct: gene KAT2B
T4 sequence (Q92831 whole entry): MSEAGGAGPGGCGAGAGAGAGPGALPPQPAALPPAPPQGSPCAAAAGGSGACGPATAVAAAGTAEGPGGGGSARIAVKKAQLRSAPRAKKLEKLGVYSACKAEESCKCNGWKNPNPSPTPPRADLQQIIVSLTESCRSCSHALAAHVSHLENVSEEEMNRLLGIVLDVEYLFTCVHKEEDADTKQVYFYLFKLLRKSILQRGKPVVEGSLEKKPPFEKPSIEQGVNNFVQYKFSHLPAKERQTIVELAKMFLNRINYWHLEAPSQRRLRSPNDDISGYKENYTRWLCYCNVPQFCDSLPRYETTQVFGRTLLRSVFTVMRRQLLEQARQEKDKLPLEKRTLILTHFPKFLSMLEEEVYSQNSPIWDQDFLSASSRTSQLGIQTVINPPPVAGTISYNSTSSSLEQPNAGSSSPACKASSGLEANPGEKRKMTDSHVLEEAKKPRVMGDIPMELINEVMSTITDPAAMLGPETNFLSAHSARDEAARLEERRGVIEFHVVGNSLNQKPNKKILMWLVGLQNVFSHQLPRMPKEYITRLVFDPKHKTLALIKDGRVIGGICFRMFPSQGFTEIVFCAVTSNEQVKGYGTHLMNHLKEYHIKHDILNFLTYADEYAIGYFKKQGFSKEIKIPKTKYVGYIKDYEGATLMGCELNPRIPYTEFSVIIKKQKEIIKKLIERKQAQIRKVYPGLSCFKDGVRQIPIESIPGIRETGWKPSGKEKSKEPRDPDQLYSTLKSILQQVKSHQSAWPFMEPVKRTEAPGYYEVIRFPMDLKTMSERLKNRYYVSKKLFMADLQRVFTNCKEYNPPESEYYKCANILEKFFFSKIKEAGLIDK
On the set-up: Intact protein LC/MS covalent labelling, fragments in pools of five, 200 uM each, 4 °C. As to conditions: 24 h, 4 °C, pool of five; 200 µM; covalent.

For a further data set, the target named is T5, OTUB2 (OTUB2A) (Homo sapiens, UniProt Q96DC9).
T5 construct: full length residues 1-234, E. coli BL21(DE3)-R3, His tag removed by TEV, construct 27312 Da
T5 sequence (Q96DC9 1-234): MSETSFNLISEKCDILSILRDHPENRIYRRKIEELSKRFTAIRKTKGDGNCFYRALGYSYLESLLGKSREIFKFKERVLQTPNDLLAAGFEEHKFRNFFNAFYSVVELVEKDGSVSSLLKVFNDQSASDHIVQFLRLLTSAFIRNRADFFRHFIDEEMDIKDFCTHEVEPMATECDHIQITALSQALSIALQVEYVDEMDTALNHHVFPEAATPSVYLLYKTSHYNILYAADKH
On the set-up: Intact protein LC/MS covalent labelling, fragments in pools of five, 200 uM each, 4 °C. As to conditions: 24 h, 4 °C, pool of five; 200 µM; covalent.

The nature of data set [2]: in vitro. On the set-up: species or system HB2, CCD841. As to conditions: human, hek293 cells.
A short description of data set [3]: in vitro. To be noted: human, hb2 cells, read-out: HB-2 Cells Viability (%). On the set-up: species or system CCD841, HEK293.

SMILES strings stand for the structures. Read-outs that look alike come from different tables or passages of the source.

What is called viability is a read-out of living cells in per cent, often relative to untreated cells.

T1 sequence (P0C024 14-235): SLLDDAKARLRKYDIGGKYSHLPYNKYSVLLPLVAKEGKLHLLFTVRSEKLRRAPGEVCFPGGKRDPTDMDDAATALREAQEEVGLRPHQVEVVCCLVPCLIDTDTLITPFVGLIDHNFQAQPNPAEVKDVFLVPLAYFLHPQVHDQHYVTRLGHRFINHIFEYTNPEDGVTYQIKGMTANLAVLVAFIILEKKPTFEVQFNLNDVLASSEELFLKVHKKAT

On to `C=CC(=O)N(C)CC1CCn2ccnc2C1` (centres unmarked) [PCM-0102752], for which the viability at 48 h, 10 µM in “in vitro [1]” turned out to be 122%; in “in vitro [2]” it was 88.4%; in “in vitro [3]”, 97.7%. Further, the NUDT7 on NUDT7 turned out to be 0. At NNMT (hNNMT), this molecule showed an NNMT of 0. At BSA, the BSA is reported as 0. At PCAF, this molecule displayed a PCAF of 0. At OTUB2 (OTUB2A), this molecule yielded an OTUB2 of 0.

In the case of `Cc1cc(Cl)ccc1NC(=O)CCl` [PCM-0102214], the viability at 48 h, 10 µM in the data set “in vitro [1]” is 67.9%; in “in vitro [2]” it was 5.5%; in “in vitro [3]”, 44.6%. On NUDT7, the NUDT7 stood at 0.08. The same molecule displayed an NNMT on NNMT (hNNMT) of 0.3. The molecule also displayed a BSA on BSA of 0. At PCAF, the PCAF amounted to 0. This molecule registered an OTUB2 at OTUB2 (OTUB2A) of 0.39.

With `N#CCc1ccc(NC(=O)CCl)cc1` [PCM-0102148], the viability at 48 h, 10 µM in “in vitro [1]” turned out to be 32.2%; in the data set “in vitro [2]”, 2.1%; in “in vitro [3]”, 11.8%. At NUDT7, this molecule returned an NUDT7 of 0.1. In addition, on NNMT (hNNMT), the NNMT came out at 0.27. The molecule further registered a BSA on BSA of 0. Besides, the PCAF at PCAF was found to be 0. The OTUB2 on OTUB2 (OTUB2A) was determined as 0.43.

For the molecule `O=C(CCl)Nc1ccc(C(=O)O)cc1` [PCM-0102400], the viability at 48 h, 10 µM in the data set “in vitro [1]” is 72.5%; in the data set “in vitro [2]”, 112%; in “in vitro [3]”, 84.1%. Also, on NUDT7, the NUDT7 is recorded as 0. Further, on NNMT (hNNMT), the NNMT came out at 0. For the same molecule, the BSA at BSA is reported as 0. Also, the PCAF at PCAF came out at 0. At OTUB2 (OTUB2A), the OTUB2 stood at 0.

`COc1cc(=O)[nH]c(NC(=O)CCl)n1` [PCM-0102873]: the viability at 48 h, 10 µM worked out at 100% in the data set “in vitro [1]”, 114% in the data set “in vitro [2]” and 99.9% in the data set “in vitro [3]”. The molecule also yielded an NUDT7 on NUDT7 of 0. Also, at NNMT (hNNMT), the NNMT was found to be 0. At BSA, this molecule registered a BSA of 0.17. The same molecule gave a PCAF at PCAF of 0. Moreover, the OTUB2 on OTUB2 (OTUB2A) turned out to be 0.

In the case of `C=CC(=O)N1CC(C)(C)C1c1cccs1` (centres unmarked) [PCM-0102611], the figures for the viability at 48 h, 10 µM in “in vitro [1]”, in “in vitro [2]” and in the data set “in vitro [3]” were 95.8%, 71.3% and 107%, respectively. Moreover, the NUDT7 on NUDT7 is on record as 0. Moreover, the NNMT at NNMT (hNNMT) was determined as 0. Besides, the BSA on BSA was determined as 0. On PCAF, this molecule registered a PCAF of 0. This molecule also returned an OTUB2 at OTUB2 (OTUB2A) of 0.

`O=C(CCl)Nc1cccc(Cl)c1` [PCM-0102198]: the viability at 48 h, 10 µM in “in vitro [1]” came to 41.1%; in “in vitro [2]” it was 1.8%; in the data set “in vitro [3]” it was 9%. In addition, the NUDT7 at NUDT7 came out at 0.28. Moreover, the NNMT at NNMT (hNNMT) stood at 0. On BSA, this molecule came in with a BSA of 0. This molecule had a PCAF on PCAF of 0. The molecule also came in with an OTUB2 at OTUB2 (OTUB2A) of 0.37.

Regarding `CC(C)(C)CCNC(=O)CCl` [PCM-0102853], the figures for the viability at 48 h, 10 µM in the data set “in vitro [1]”, in the data set “in vitro [2]” and in the data set “in vitro [3]” were 91.6%, 102% and 99.7%, respectively. The NUDT7 on NUDT7 worked out at 0. Further, the NNMT on NNMT (hNNMT) stood at 0.24. Further, on BSA, the BSA turned out to be 0. On PCAF, this molecule returned a PCAF of 0. Besides, the OTUB2 at OTUB2 (OTUB2A) came out at 0.

Turning to `Cl.O=C(CCl)NCc1ccccn1` [PCM-0102950], the figures for the viability at 48 h, 10 µM in “in vitro [1]”, in “in vitro [2]” and in the data set “in vitro [3]” were 109%, 97.4% and 100%, respectively. Also, the NUDT7 on NUDT7 came out at 0. On NNMT (hNNMT), the NNMT worked out at 0. Further, the BSA at BSA is given as 0. Moreover, the PCAF on PCAF came to 0. The same molecule showed an OTUB2 at OTUB2 (OTUB2A) of 0.

As for `O=C(CCl)NC1CCOc2ccccc21` (centres unmarked) [PCM-0102871], the viability at 48 h, 10 µM is 87.1% in “in vitro [1]”, 69.5% in the data set “in vitro [2]” and 92.9% in the data set “in vitro [3]”. The molecule also had an NUDT7 on NUDT7 of 0. The NNMT at NNMT (hNNMT) is 0. Moreover, the BSA at BSA turned out to be 0. On PCAF, the PCAF worked out at 0. In addition, the OTUB2 on OTUB2 (OTUB2A) is reported as 0.44.

The values are drawn from paper PMC6556873, “Rapid Covalent-Probe Discovery by Electrophile-Fragment Screening” (Journal of the American Chemical Society, 2019).
